According to patent publication US11414431B2, “Substituted pyrazolo[1,5-a]pyrimidines as TYK2 inhibitors” (Nimbus Lakshmi, Inc., priority 2018, dated 2022):

Tested on: IL-12 induced STAT4 phosphorlyation mediated by TYK2/JAK2
Assay: IL-12 Induced pSTAT4 in Human PBMC
Type: cell-based
Conditions: 1.7 ng/mL IL-12 for 30 minutes
Experimental: Human PBMC were isolated from buffy coat and are stored frozen for assays as needed. […] 15 μL of compound or DMSO was added to the well at the desired concentrations and incubated at 1 hr at 37° C. 15 μL of stimulus (final concentration of 1.7 ng/mL IL-12) was added for 30 minutes prior to pSTAT4 and total STAT4 analysis using cell lysates prepared and analyzed by MSD reagents as per manufacturer protocol. The final DMSO concentration of compound in the assay was 0.1%.
The IL-12 induced pSTAT4 assay evaluates the inhibition of IL-12 induced STAT4 phosphorlyation mediated by TYK2/JAK2 (heterpdimeric complex).

Row | Structure (SMILES) | IC50 [µM] | IC50 (0.5 h) [µM]
1 | CNc1cc(Nc2cccn([C@H]3C[C@@H](OC)C3)c2=O)nc2c(C(=O)NC3CC[C@@H]3F)cnn12 (mixture of isomers) [Compound I-173] | < 0.1 | –
2 | CNc1cc(Nc2cccn([C@H]3C[C@H](OC)C3)c2=O)nc2c(C(=O)NC3CC[C@@H]3F)cnn12 (mixture of isomers) [Compound I-176] | < 0.1 | –
3 | CO[C@@H]1CCC1NC(=O)c1cnn2c3c(c(Nc4cccn(C(C)C)c4=O)nc12)OCCN3 (stereo in doubt) [Compound I-759, 5-((1-Isopropyl-2-oxo-1,2-dihydropyridin-3-yl)amino)-N-(2-methoxycyclobutyl)-2,3-dihydro-1H-pyrazolo[5′,1′:2,3]pyrimido[5,4-b][1,4]oxazine-7-carboxamide] | – | < 0.1
4 | CNc1cc(-c2cn(CC(=O)N(C)C)c3ncccc23)nc2c(C(=O)NC3CC[C@@H]3OC)cnn12 (stereo in doubt) [Compound I-920, 5-(1-(2-(dimethylamino)-2-oxoethyl)-1H-pyrrolo[2,3-b]pyridin-3-yl)-N-(2-methoxycyclobutyl)-7-(methylamino)pyrazolo[1,5-a]pyrimidine-3-carboxamide] | – | 0.1 to 0.5
5 | CNc1cc(-c2cnc3n(CC(C)(C)O)cccc2-3)nc2c(C(=O)NC3CC[C@@H]3OC)cnn12 (stereo in doubt) [Compound I-979, 5-(7-(2-hydroxy-2-methylpropyl)-7H-pyrrolo[2,3-b]pyridin-3-yl)-N-(2-methoxycyclobutyl)-7-(methylamino)pyrazolo[1,5-a]pyrimidine-3-carboxamide] | – | 0.1 to 0.5
6 | CNc1cc(-c2cnc3n(CCCN4CCOCC4)cccc2-3)nc2c(C(=O)NC3CC[C@@H]3OC)cnn12 (stereo in doubt) [Compound I-981, N-(2-methoxycyclobutyl)-7-(methylamino)-5-(7-(3-morpholinopropyl)-7H-pyrrolo[2,3-b]pyridin-3-yl)pyrazolo[1,5-a]pyrimidine-3-carboxamide] | – | 0.1 to 0.5
7 | CNc1cc(Nc2cccn(-c3ccc(C)nc3)c2=O)nc2c(C(=O)N[C@@H]3C[C@H]3OC)cnn12 [Compound I-34, N-((1R,2R)-2-Methoxycyclopropyl)-5-((6′-methyl-2-oxo-2H-[1,3′-bipyridin]-3-yl)amino)-7-(methylamino)pyrazolo[1,5-a]pyrimidine-3-carboxamide] | – | < 0.1
8 | [2H]C([2H])([2H])O[C@H]1CCC1NC(=O)c1cnn2c(NC)cc(Nc3cccn([C@H]4[C@@H]5COC[C@@H]54)c3=O)nc12 (stereo partly drawn) [Compound I-102, 5-((1-((1R,5S,6r)-3-Oxabicyclo[3.1.0]hexan-6-yl)-2-oxo-1,2-dihydropyridin-3-yl)amino)-N-((trans-1,2)-2-(methoxy-d3)cyclobutyl)-7-(methylamino)pyrazolo[1,5-a]pyrimidine-3-carboxamide] | – | < 0.1
9 | CNc1cc(Nc2cccn([C@H]3C[C@H](F)C3)c2=O)nc2c(C(=O)N[C@@H]3CC[C@H]3O)cnn12 [Compound I-108, 5-((1-((1r,3R)-3-Fluorocyclobutyl)-2-oxo-1,2-dihydropyridin-3-yl)amino)-N-((1R,2R)-2-hydroxycyclobutyl)-7-(methylamino)pyrazolo[1,5-a]pyrimidine-3-carboxamide] | 0.1 to 0.5 | –
10 | CNc1cc(Nc2cccn([C@@H]3CCC[C@](C)(OC)C3)c2=O)nc2c(C(=O)NC3CC3)cnn12 [Compound I-124] | < 0.1 | –
11 | CNc1cc(Nc2cccn(C3COC3)c2=O)nc2c(C(=O)N[C@@H]3C[C@@H]3F)cnn12 [Compound I-125] | < 0.1 | –

Results, then the molecule that gave them:

Row | IC50 [µM] | IC50 (0.5 h) [µM] | Structure (SMILES)
12 | < 0.1 | – | CNc1cc(Nc2cccn(C(C)C)c2=O)nc2c(C(=O)NC3CC[C@@H]3F)cnn12 (mixture of isomers) [Compound I-145]
13 | – | 0.1 to 0.5 | CNc1cc(-c2cn(CC(=O)N3CCC3)c3ncccc23)nc2c(C(=O)NC3CC[C@@H]3OC)cnn12 (stereo in doubt) [Compound I-928, 5-(1-(2-(azetidin-1-yl)-2-oxoethyl)-1H-pyrrolo[2,3-b]pyridin-3-yl)-N-(2-methoxycyclobutyl)-7-(methylamino)pyrazolo[1,5-a]pyrimidine-3-carboxamide]
14 | – | 0.1 to 0.5 | CNc1cc(Nc2cccn([C@H]3C[C@H](F)C3)c2=O)nc2c(C(=O)NC3CC[C@H]3O)cnn12 (stereo partly drawn) [Compound I-11, 5-((1-((1r,3S)-3-Fluorocyclobutyl)-2-oxo-1,2-dihydropyridin-3-yl)amino)-N-(2-hydroxycyclobutyl)-7-(methylamino)pyrazolo[1,5-a]pyrimidine-3-carboxamide]
15 | – | < 0.1 | CNc1cc(Nc2cccn([C@H]3C[C@@H]3F)c2=O)nc2c(C(=O)N[C@H]3CC[C@H]3O)cnn12 [Compound I-12, 5-((1-((1S,2S)-2-Fluorocyclopropyl)-2-oxo-1,2-dihydropyridin-3-yl)amino)-N-((1S,2R)-2-hydroxycyclobutyl)-7-(methylamino)pyrazolo[1,5-a]pyrimidine-3-carboxamide]
16 | < 0.1 | – | CNc1cc(Nc2cccn([C@H]3C[C@H](F)C3)c2=O)nc2c(C(=O)N[C@H]3CC[C@H]3O)cnn12 [Compound I-16, 5-((1-((1r,3S)-3-Fluorocyclobutyl)-2-oxo-1,2-dihydropyridin-3-yl)amino)-N-((1S,2R)-2-hydroxycyclobutyl)-7-(methylamino)pyrazolo[1,5-a]pyrimidine-3-carboxamide]
17 | – | < 0.1 | CNc1cc(Nc2cccn([C@@H]3CC[C@H]3OC)c2=O)nc2c(C(=O)N[C@H]3CC[C@@H]3O)cnn12 [Compound I-20, N-((1S,2S)-2-Hydroxycyclobutyl)-5-((1-((1R,2R)-2-methoxycyclobutyl)-2-oxo-1,2-dihydropyridin-3-yl)amino)-7-(methylamino)pyrazolo[1,5-a]pyrimidine-3-carboxamide]
18 | < 0.1 | – | CNc1cc(Nc2cccn([C@H]3[C@@H]4COC[C@@H]43)c2=O)nc2c(C(=O)N[C@@H]3C[C@H]3OC)cnn12 [Compound I-25, 5-((1-((1R,5S,6r)-3-Oxabicyclo[3.1.0]hexan-6-yl)-2-oxo-1,2-dihydropyridin-3-yl)amino)-N-((1R,2R)-2-methoxycyclopropyl)-7-(methylamino)pyrazolo[1,5-a]pyrimidine-3-carboxamide]
19 | < 0.1 | – | CNc1cc(Nc2cccn([C@H]3C[C@H](F)C3)c2=O)nc2c(C(=O)N[C@@H]3CC[C@H]3OC)cnn12 [Compound I-57, 5-((1-((1r,3R)-3-Fluorocyclobutyl)-2-oxo-1,2-dihydropyridin-3-yl)amino)-N-((1R,2R)-2-methoxycyclobutyl)-7-(methylamino)pyrazolo[1,5-a]pyrimidine-3-carboxamide]
20 | – | < 0.1 | CNc1cc(Nc2cccn([C@H]3CCC[C@@H](C#N)C3)c2=O)nc2c(C(=O)NC3CC[C@@H]3OC)cnn12 (stereo partly drawn) [Compound I-114, 5-((1-((1S,3R)-3-Cyanocyclohexyl)-2-oxo-1,2-dihydropyridin-3-yl)amino)-N-((trans-1,2)-2-methoxycyclobutyl)-7-(methylamino)pyrazolo[1,5-a]pyrimidine-3-carboxamide]
21 | – | < 0.1 | CNc1cc(Nc2cccn([C@@H]3CCC[C@H](C#N)C3)c2=O)nc2c(C(=O)NC3CC[C@@H]3OC)cnn12 (stereo partly drawn) [Compound I-115, 5-((1-((1R,3S)-3-Cyanocyclohexyl)-2-oxo-1,2-dihydropyridin-3-yl)amino)-N-((trans-1,2)-2-methoxycyclobutyl)-7-(methylamino)pyrazolo[1,5-a]pyrimidine-3-carboxamide]
22 | < 0.1 | – | CNc1cc(Nc2cccn([C@H]3CCC[C@@](C)(O)C3)c2=O)nc2c(C(=O)N[C@@H]3C[C@@H]3F)cnn12 [Compound I-129]
